Details: not given

Compound	boiling point	melting point	log10 vapour pressure (mmHg)	ready biodegradability	log10 Henry constant (atm·m³/mol)	log10 Koa	log10 biodegradation half-life (days)	log10 Koc (L/kg)
CC(Cl)C(=O)O (stereo unspecified)	185 °C							
Cc1ccc(S)c(S)c1		29 °C						
O=C(CC(=O)C(F)(F)F)c1cccs1		42 °C						
Cc1nc2cc(Cl)ccc2s1		69 °C						
c1ccc(C2CO2)cc1 (stereo unspecified)	194 °C	-35.6 °C	-0.523	readily biodegradable				
CC1=CC(=O)O[C@@]2(C1)C[C@H]1CC[C@@H]2CN1C		54.5 °C						
CC[C@H]1CN2CCc3cc(OC)c(OC)cc3[C@@H]2C[C@@H]1C[C@H]1NCCc2cc(OC)c(OC)cc21		74 °C						
CCC=C(C)CCC	121 °C							
O=C(O)c1ccc(-c2ccccc2)cc1		228 °C						
BrCCCCCCCBr	263 °C	41.7 °C						
CCCCCCCC(=O)OCCC	226 °C	-46.2 °C						
c1ccc2c(c1)-c1cc3ccccc3c3cc4ccccc4c-2c13		232 °C						
CC(C)(C)C(=O)C(C)(C)C	152 °C	-25.2 °C						
CCCC(C)(C)C(C)CC (stereo unspecified)	161 °C							
NS(=O)(=O)c1ccc(SCCCO)c(Cl)c1		127 °C						
CCN1C(=O)C=CC1=O		45.5 °C						
Clc1ccc(-c2ccc(Cl)cc2)cc1	317 °C	149 °C	-3.27		-3.7	7.68		
CCOc1ccc(NC(=O)CC(C)O)cc1 (stereo unspecified)		160 °C						
C=CCCC(C)O (stereo unspecified)	139 °C							
ClC(Cl)C(Cl)(Cl)Cl	160 °C	-29 °C	0.544					
CCC(C)(C)C	49.7 °C	-99 °C	2.5				1.28	
O=C(O)c1ccc(O)c(O)c1				readily biodegradable				
C1COCCN1	128 °C	-4.9 °C	1	not readily biodegradable				
C#C[C@]1(OC(C)=O)CC[C@H]2[C@@H]3CCC4=C/C(=N/O)CC[C@@H]4[C@H]3CC[C@@]21CC		216 °C						
CCCCCCCCCCCCCCCCCBr	349 °C	32 °C	-4.74					

Compound	boiling point	melting point	log10 vapour pressure (mmHg)	ready biodegradability	log10 Henry constant (atm·m³/mol)	log10 Koa	log10 biodegradation half-life (days)	log10 Koc (L/kg)
OCC=Cc1ccccc1		33 °C	-1.62	readily biodegradable				
CC(=O)Nc1ccc(/N=N/c2cc(C)ccc2O)cc1		195 °C	-10.3					
CC(C)c1ccc(C=O)cc1	236 °C			readily biodegradable				
COc1cc2c(c3oc(=O)c4c(c13)CCOC4=O)C1C=COC1O2 (stereo unspecified)		245 °C						
COc1ccc2c(c1O)-c1c3c(cc4c1[C@H](C2)N(C)CC4)OCO3		200 °C						
CC1CCCCC1	101 °C	-127 °C	1.66		-0.367	3.03	0.602	
CC(C)[N+](=O)[O-]	120 °C	-91.3 °C	1.24					
CC(C)C1=CC[C@H]2C(=C1)CC[C@@H]1[C@]2(C)CCC[C@@]1(C)C(=O)O		150 °C						
OCc1ccc(CO)cc1		118 °C						
CCCC[N+](=O)[O-]	153 °C	-81.3 °C	0.579					
C=CC#CC=C	85 °C	-88 °C						
C=CCCCCl	105 °C							
COC(=O)c1cc(Cl)ccc1N		67 °C						
CCCOC(OCCC)OCCC	191 °C							
CNC(=O)ON=C(CSC)C(C)(C)C		57 °C	-3.77					
CCCn1c(=O)[nH]c(=O)c2[nH]cnc21		288 °C						
Cc1ccc(O)c(-n2n3c4ccccc4n23)c1				not readily biodegradable				
CCCCCCCCCCCCC(C)=O		33.5 °C						
CCC(C)(C)CC(C)(C)C	154 °C							
CNCCO	158 °C	-4.5 °C	0.0346	readily biodegradable				
O=c1oc2cc(O)ccc2s1		160 °C						
CC#CC	26.9 °C	-32.3 °C	2.85	not readily biodegradable				
Clc1cc(Cl)c2cc(Cl)cc(Cl)c2c1		180 °C				7.9		
CCOc1ccccc1C=O	248 °C	21 °C						
ClC(Cl)c1ccccc1	205 °C	-17 °C	-0.328	readily biodegradable				

Compound	boiling point	melting point	log10 vapour pressure (mmHg)	ready biodegradability	log10 Henry constant (atm·m³/mol)	log10 Koa	log10 biodegradation half-life (days)	log10 Koc (L/kg)
COc1cc(CCn2cccc2C(=O)O)cc(OC)c1OC		132 °C						
CC1=C(/C=C/C(C)=C/C=C/C(C)=C/C=C/C=C(C)/C=C/C=C(C)/C=C/C2=C(C)C(=O)CCC2(C)C)C(C)(C)CCC1		179 °C						
CC(C)C(C)O (stereo unspecified)	112 °C		0.961					
O=Cc1c(O)ccc2ccccc12		83 °C		readily biodegradable				
OCCCC(F)(F)F	125 °C							
CCCNC	62 °C							
C[C@@H]1CCC[C@H](C)N1	127 °C			not readily biodegradable				
C=CCCCc1ccccc1	201 °C							
CCCOCCO	150 °C		0.494					
CCCCC(=O)OCC	146 °C	-91.2 °C	0.681					1.97
Cc1ccc(O)c(Cl)c1C	188 °C	27 °C						
O=C1OC(OC2OC(=O)C(Cl)=C2Cl)C(Cl)=C1Cl (stereo unspecified)		142 °C						
CCSC(=O)N(CC(C)C)CC(C)C			-1.89					2.11
CCCCC(C)CCCC	165 °C	-87.7 °C						
Cc1cccc(C(C)C)c1	175 °C	-63.7 °C	0.235	not readily biodegradable				
COC(=O)N/N=C/c1c[n+]([O-])c2ccccc2[n+]1[O-]		240 °C						
CCOC(=O)c1ccccc1OC	261 °C							
Cc1cc(C)cc(N)c1	220 °C	9.8 °C		not readily biodegradable				
c1ccc(-c2ccccc2-c2ccccc2)cc1	332 °C	56.2 °C	-3.6					
CCC(C(=O)NC(=O)NC(C)=O)c1ccccc1 (stereo unspecified)		100 °C						
C=C=CC	10.9 °C	-136 °C	3.1					
Clc1ccc(Cl)c(-c2ccccc2)c1Cl					-3.66			
O=[N+]([O-])c1cc(Cl)ccc1Cl	267 °C	56 °C		not readily biodegradable	-4.92			
CCCCCCCC[Si](Cl)(Cl)Cl	232 °C							
CC(C(=O)O)c1ccc2c(c1)[nH]c1ccc(Cl)cc12 (stereo unspecified)		198 °C						

Compound	boiling point	melting point	log10 vapour pressure (mmHg)	ready biodegradability	log10 Henry constant (atm·m³/mol)	log10 Koa	log10 biodegradation half-life (days)	log10 Koc (L/kg)
O=C(O)c1cccs1		130 °C						
CCCCOS(=O)(=O)OCCCC			-1.93					
CC(=O)NS(=O)(=O)c1ccc(NC(=O)c2ccccc2C(=O)O)cc1		196 °C						
Cn1ccccc1=S		89.5 °C						
C[C@]12CC[C@H]3C(=CCc4cc(O)ccc43)[C@@H]1CCC2=O		239 °C						
CCCC1CC1	69.1 °C							
COC(=O)c1cccc(C)c1	221 °C							
COc1ccc(OC)c(C=O)c1	270 °C	52 °C						
Brc1cncc2ccccc12	282 °C	41.5 °C						
CN1CC[C@]23c4c5ccc(OCc6ccccc6)c4O[C@H]2[C@@H](O)C=C[C@H]3[C@H]1C5		132 °C						
CC(C)=CCCC=C(C)C	166 °C	-74.4 °C						
C1CC[C@H]2CCC[C@@H]2C1 (racemic)	167 °C	-53 °C						
O=C(Cl)C=Cc1ccccc1	257 °C	36 °C						
CCC(C)ON=O (stereo unspecified)	68.5 °C							
OCC(c1ccccc1)c1ccccc1		64.5 °C						
CCC1CCC(C)CC1 (stereo unspecified)	151 °C	-80.8 °C						
CCCC(C)(C)Br	142 °C							
O=C(OC1CCCCC1)c1ccccc1C(=O)OC1CCCCC1		66 °C	-6.06	readily biodegradable				
COc1cc(C=CC(=O)O)cc(OC)c1OC		127 °C						
COc1ccc(CC#N)cc1	286 °C							
CC(=O)Oc1ccc([N+](=O)[O-])cc1		78 °C						
O=P(c1ccccc1)(c1ccccc1)c1ccccc1		156 °C	-8.59					
C=C[Si](C=C)(C=C)C=C	130 °C							
C=CCNS(=O)(=O)c1cc(S(N)(=O)=O)c(Cl)cc1/N=C/C=C(/C)O		206 °C						
CN(C)c1ccc2ccccc2c1	305 °C	52.5 °C						

Compound	boiling point	melting point	log10 vapour pressure (mmHg)	ready biodegradability	log10 Henry constant (atm·m³/mol)	log10 Koa	log10 biodegradation half-life (days)	log10 Koc (L/kg)
CCCCCC(=O)Nc1ccccc1		95 °C						
Cc1ncc(CO)c(CO)c1O		160 °C						
Cc1cccc2c1ccc1cc(C(C)C)ccc12	390 °C	101 °C						
CCc1ccc(O)c(C(C)(C)C)c1			-1.74					
Nc1ccccc1C(=O)OCC=Cc1ccccc1		61 °C						
OCC1OC(O)C(O)C(O)C1O (stereo unspecified)				readily biodegradable				
O=C1CCCCC1Cl (stereo unspecified)		23 °C						
C[C@]12C[C@H]3S[C@H]3C[C@@H]1CC[C@@H]1[C@@H]2CC[C@]2(C)[C@@H](O)CC[C@@H]12		127 °C						
O=C(O)c1ccncc1C(=O)O		256 °C						
Clc1ccccc1-c1ccc(Cl)c(Cl)c1Cl					-3.85			
CC(C)CBr	91.1 °C	-119 °C						
C=C(C)C(=O)Cl	96 °C	-60 °C						
Cc1ccccc1F	115 °C	-62 °C	1.39					
C(CC1CCNCC1)CC1CCNCC1	329 °C	67.1 °C						
O=C(O)CCCCCCCBr		38.5 °C						
N#C[C@H](O[C@@H]1O[C@H](CO[C@@H]2O[C@H](CO)[C@@H](O)[C@H](O)[C@H]2O)[C@@H](O)[C@H](O)[C@H]1O)c1ccccc1		224 °C						
C=CCCCCCCC	147 °C	-81.3 °C	0.732	not readily biodegradable		3.83		
O=C(Nc1ccc(Cl)cc1)Nc1ccc(Cl)c(C(F)(F)F)c1		214 °C						
CC(C)(C)OC=O	82.5 °C				-3.16			
COc1ccc(N)c(C)c1	248 °C	29.5 °C						
O=C(C(=O)c1cc(Br)ccc1O)c1cc(Br)ccc1O		212 °C						
Clc1ccc(Oc2cc(Cl)cc(Cl)c2)cc1			-3.76					
c1ccc2c(c1)nnc1ccccc12		158 °C						
CCC#CCCO	163 °C			readily biodegradable				
CCCC(Cl)CCl (stereo unspecified)	148 °C							

Same assay, conditions: fish

Compound	log10 BCF	log10 biotransformation half-life (days)
C1COCCN1	0.45	
CC1CCCCC1	2.27	0.57
CC(C)[N+](=O)[O-]	0.92	-1.2
C[C@@H]1CCC[C@H](C)N1	0.7	
Cc1cccc(C(C)C)c1	2.73	0.07
c1ccc(-c2ccccc2-c2ccccc2)cc1	3.48	0.86
O=[N+]([O-])c1cc(Cl)ccc1Cl	2.05	0.56
CCN(CC)c1ccc2c(-c3ccccc3C(=O)O)c3ccc(N(CC)CC)cc3[o+]c2c1	0.23	
C=CCCCCCCC	3.17	0.52

Reference: the OPERA property sets (Mansouri et al. 2018)
